Source: US20150315154A1 (COUNCIL OF SCIENTIFIC & INDUSTRIAL RESEARCH, priority 2012, published 2015)

Assays:
[1] = test system: CHO cells (Chinese hamstar ovarian cancer cells); experiment: MTT cell viability assay, CHO cells; assay type: cell-based, Chinese hamster; settings: CHO cell line; after 24 h as well as after 48 h
[2] = MTT cell viability assay, normal RAW 264.7 cells; assay type: cell-based; settings: mouse, RAW 264.7 cells (non-cancerous mouse macrophage cells), after 24 and 48 h
[3] = test system: B16F10 cells (mouse melanoma); experiment: FITC-Annexin V / PI flow cytometry apoptosis assay, B16F10 cells; assay type: cell-based; settings: 25 μM/mL, 1:1:1 lipid:DOPC:Q16TG, 24 h
Text: Significant increase of both FITC (fluorescence isothio cyanate) and PE (phycoerythrin) signal in histidinylated lipid treated B16F10 cells confirm apoptosis inducing property of these lipids after 24 hrs. In a flow cytometric quadrant (FITC vs PE), the lower left=(LL) panel represents normal cells and lower right (LR) panel represents early apoptotic cells which increase FITC signal only. Whereas upper right (UR) panel represents late apoptotic cells which increases both FITC and PE signaling and upper left (UL) panel represents necrotic cell only which increases PE signal only. […]
(§1) To quantify apoptotic cell death, we studied the in vitro apoptosis induction efficacy of the presently disclosed histidinylated cationic amphiphiles in mouse melanoma (B16F10) and human lung carcinoma (A549) as model malignant cells by flow cytometry using the FITC-Annexin V Apoptosis Detection Kit (Sigma). […]
(§2) B16F10 & A549 cells were treated with all four histidinylated lipids and liposomal formulation of hydrophobic anti-cancer drug dexamethasone containing DOPC and the helper lipid Q16TG (in 1:1:1 mole ratio of histidinylated lipid:DOPC:Q16TG, 25 μM/mL). […] After 24 h of treatment, cells were stained with annexin V and PI (according to manufacturer protocol, Sigma) and analysed in a flow cytometer (BD FacsCanto II). […]

[4] = test system: A549 cells (human lung carcinoma); experiment: FITC-Annexin V / PI flow cytometry apoptosis assay, A549 cells; assay type: cell-based; settings: 25 μM/mL, 1:1:1 lipid:DOPC:Q16TG, 24 h
Text: Significant increase of both FITC and PE signal in histidinylated lipid treated A549 cells confirm apoptosis inducibility property of these lipids after 24 hrs. In a flow cytometric quadrant (FITC vs PE), the lower left (LL) panel represents normal cells and lower right (LR) panel represents early apoptotic cells which increase FITC signal only. Whereas upper right (UR) panel represents late apoptotic cells which increases both FITC and PE signaling and upper left (UL) panel represents necrotic cell only which increases PE signal only. […]
as §1, §2

[5] = test system: mRNA of Bcl-2, Bcl-xL, BAX, Caspase 3, Caspase 9 in A549 cells; experiment: Semi-quantitative RT-PCR of apoptosis related genes in A549 cells; assay type: cell-based, human; settings: 25 μM/mL, 24 h, vs untreated cells
Method: FIG. 11 Describes reverse transcription-PCR analysis of (BAX, BAK, Caspase 3 & 9) and anti-apoptotic genes (Bcl-2, Bcl-xL & NF-kB) in A549 cells after 24 h treatment with histidinylated lipids. […] After 4 h the medium was discarded and 3 mL of DMEM medium (Sigma) containing 10% fetal bovine serum was added to each well and left for 24 h. After 24 h, mRNAs were extracted from all the cells, cDNA was synthesized by Reverse transcription reaction and amplified by Polymerase Chain Reaction and finally resolved in 2% agarose gel.
Next, toward obtaining mechanistic insights into the origin of the observed in-vitro apoptosis inducing properties of the presently disclosed histidinylated lipids, we conducted conventional RT-PCR (Reversed transcriptase polymerase chain reaction) assays. Effect of the histidinylated lipids on the mRNA expression of various apoptosis related genes were analyzed by RT-PCR. The human lung carcinoma (A549) cells as a reference, were treated with the liposomal formulations of the histidinylated lipid containing DOPC & helper lipid Q16TG (25 μM/mL) and untreated cells were used as control. After 24 h, the total mRNA was isolated by conventional method using trizol. RT-PCR products were resolved on a 2% agarose gel electrophoresis and visualized with ethidium bromide. Our findings are consistent with the apoptosis inducing abilities of the presently disclosed histidinylated lipids being mediated via inhibition of transcription of the anti-apoptotic Bcl-2 & Bcl-xL genes & via activation of pro-apoptotic BAX & BAK signal transduction pathways. […] 18S m-RNA was used as loading control for all these lanes (FIG. 11).
Semi-quantitative RT-PCR analysis was performed to measure the changes in gene expression of treated cells in contrast to the untreated cells. A549 cells (ATCC) were seeded at a density of 10^6 cells/well in a 6 well plate usually 18-24 h before transfection. […] Cells were washed with phosphate-buffered saline (PBS), pH 7.4 (1×100 μL) and the 1 mL liposomal solutions were added to the cells. […] Then the cells were incubated at a humidified atmosphere containing 5% CO2 at 37° C. for 24 h. After 24 h of transfection, lipoplex treated and untreated cells were lysed directly in 6-well plates with 1 mL of TRIzol® reagent (Invitrogen) following removal of media and washing with PBS (1 mL). The cells were dissolved in TRI Reagent and cell lysates were pipetted several times to clear the haziness. Cell lysates were taken in 1.5 mL centrifuge tubes, after 10 min 0.2 mL chloroform was added. The samples were covered tightly and shaken vigorously for 15 sec, incubated for 10 min at room temperature and centrifuged at 14,000×g for 15 min at 4° C. Following centrifugation, the mixture separates into a lower red phenol-chloroform phase, interphase and the colourless upper aqueous phase. RNA remains exclusively in the aqueous phase whereas DNA and proteins are in the interphase and organic phase. Aqueous phase was transferred in to a fresh tube; 0.8 mL of isopropanol was added and mixed with pipette, kept for 15 min at −20° C. and centrifuged at 20,000 g for 20 min at 4° C. The supernatant was removed and the RNA pellet was washed with 500 μL cold 75% ethanol and centrifuged at 20,000 g for 10 min at 4° C. Ethanol was aspirated out and the pellet air-dried by inverting the tube. Finally the RNA pellet was dissolved in 15 μL of DEPC treated water, the ODs measured at 260 and 280 nm and the concentrations and purities of RNAs were calculated.

B16F10 melanoma tumor = experiment: Tumour growth inhibition assay, B16F10 melanoma in C57BL/6J mice; assay type: in vivo, mouse; settings: liposomes 1:1:1 with DOPC:Q16TG injected at tumour site on day 14, 16, 18, 21, 24
[6] = test system: A549 cells (human lung carcinoma cells); experiment: cells; settings: A549, 24 h, read-out: cell viability
Text: (§3) The absorption obtained with reduced formazan with cells in the absence of lipids was taken to be 100. The assay was done after 24 (A) and 48 (B) hrs of the treatment.
(§4) The yellow tetrazolium salt (MTT) is reduced by mitochondrial dehydrogenase enzyme from metabolically active cells to form insoluble purple formazan crystals, which are solubilized by the addition of a mixture of DMSO & MeOH. The color can then be quantified by spectrophotometric method. For each cell type a linear relationship between cell number and absorbance is established, enabling accurate, straightforward quantification of changes in proliferation.
(§5) Cells were seeded at a density of 10000 (for B16F10, A549, MCF-7 & CHO) Or 15000 (for Raw264.7) per well in a 96-well plate for 18-24 h before the treatment. Cells were incubated with the liposomes of the presently described histidinylated cationic amphiphiles in the concentration range 40-16 μmol/mL in serum free medium. Immediately before the treatment, cells plated in the 96-well plate were washed with PBS (2×100 μL). After 4 h of incubation, the medium was replaced with fresh complete medium containing 10% FBS. The 10 μl of freshly prepared MTT solution in PBS (5 mg/mL) was added to each well of the plate after 24 or 48 h. The yellow tetrazolium salt (MTT) was reduced by mitochondrial dehydrogenase enzyme from metabolically active cells to form insoluble purple formazan crystals, which are solubilized by the addition of a mixture of DMSO & MeOH. The intensities of color were then quantified by spectrophotometric means. For each cell type a linear relationship between cell number and absorbance was established, enabling accurate, straightforward quantification of changes in proliferation.

in vitro = settings: African green monkey, COS-1 cells (non-cancerous)
Text: as §3, §4, §5

[7] = test system: non-cancerous healthy COS-1 cells; settings: normal COS-1 cells; after 24 and 48 h
Text: as §3, §4, §5

Structure (SMILES)	cytotoxicity [1]	viability [2] [%]	apoptosis induction (annexin V / PI) [3]	apoptosis induction (annexin V / PI) [4]	Bcl-2 mRNA level [5]	Bcl-xL mRNA level [5]	Caspase 3 expression [5]	Caspase 9 expression [5]	expression of pro-apoptotic gene BAX [5]	tumor growth inhibition (B16F10 melanoma tumor)	viability at 40 µM [6] [%]	viability (in vitro) [%]	cell viability [7] [%]
CCCCCCCCCCCCCCCCOC(=O)C[C@H](NC(=O)[C@@H](N)Cc1c[nH]cn1)C(=O)OCCCCCCCCCCCCCCCC	most potent cytotoxicity	> 80	enhanced apoptosis	enhanced apoptosis	significantly decreased mRNA levels	significantly decreased mRNA levels	up regulation	up regulation	up regulation	highest tumor growth inhibition	20 to 40	~70	–
CCCCCCCCCCCCCCCCCCOC(=O)C[C@H](NC(=O)[C@@H](N)Cc1c[nH]cn1)C(=O)OCCCCCCCCCCCCCCCCCC	–	> 80	–	–	did not show significant down regulation	did not show significant down regulation	up regulation	up regulation	up regulation	moderate tumour growth inhibition	20 to 40	~70	–
CCCCCCCCCCCCCCCCOC(=O)CC[C@H](NC(=O)[C@@H](N)Cc1c[nH]cn1)C(=O)OCCCCCCCCCCCCCCCC	most potent cytotoxicity	> 80	enhanced apoptosis	enhanced apoptosis	significantly decreased mRNA levels	significantly decreased mRNA levels	up regulation	up regulation	up regulation	highest tumor growth inhibition	20 to 40	~70	–
CCCCCCCCCCCCCCCCCCOC(=O)CC[C@@H](NC(=O)[C@@H](N)Cc1ncc[nH]1)C(=O)OCCCCCCCCCCCCCCCCCC.Cl.Cl [HE-18, 2-((S)-2-ammonio-3-((R)-1,5-bis(octaadecyloxy)-1,5-dioxopentan-2-ylamino)-3-oxopropyl)-1H-imidazol-3-iumchloride]	most potent cytotoxicity	–	–	–	did not show significant down regulation	did not show significant down regulation	up regulation	up regulation	up regulation	moderate tumour growth inhibition	–	–	~70
